Read-outs that look alike come from different tables or passages of the source.
Assays:
Tet(X4) = Tet(X4) (Escherichia coli, UniProt A0A3T0V9Y5); test: FP competitive displacement of probe 6; type: binding; conditions: IC50app, Tet(X4) (Polarization), 25 nM 6, 40 nM Tet(X4), 5 mM MgCl2, 1 μM FAD, 100 mM Tris pH 7.0, 0.01% Triton X-100
Outline: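 FP displacement of probe 6 (added as 50 nM solution) from Tet(X4) (2× mix: 80 nM enzyme, 2 μM FAD, 10 mM MgCl2), 30 min at ambient temperature. Dose-response used 3-fold, 10-point DMSO series (top 5 or 0.5 mM stock). IC50^app came from a Hill fit of control-normalised response. Library screening used 10 μM compound, 0.1% DMSO, […].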

[1] = tested on: E. coli TOP10 containing plasmid pBAD-TOPO-Tet(X4); test: Broth microdilution MIC and checkerboard assay; type: cell-based, Escherichia coli; conditions: for MIC: Escherichia coli; for Tet(X) inhibitor MIC: alone; for reduction of the tigecycline MIC: at high concentrations of inhibitor; for Combination (antibiotic/inhibitor) MIC: inhibitor: inhibitor in combination with tigecycline; for Combination (antibiotic/inhibitor) MIC: inhibitor / Combination (antibiotic/inhibitor) MIC: antibiotic / Combination (Antibiotic/Inhibitor) MICs: antibiotic / Combination (Antibiotic/Inhibitor) MICs: inhibitor: lowest FICI; for Combination (antibiotic/inhibitor) MIC: antibiotic: tigecycline in combination with the inhibitor
Outline: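 E. coli TOP10 with pBAD-TOPO-Tet(X4), […], tested by CLSI broth microdilution in CAMHB, ~1.5 × 10^6 cfu mL^−1 inoculum, 37 °C, 18 h. Checkerboard of seven 2-fold inhibitor dilutions × ten dilutions; growth read visually ± resazurin; FICI = FICA + FICB.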

[2] = tested on: Escherichia coli T-24a – tet(X4); test: microbe, parasite or virus in culture; type: cell-based; conditions: for MIC: Escherichia coli, read-out: Tet(X) Inhibitor MIC, alone; for Combination (Antibiotic/Inhibitor) MICs: inhibitor / Combination (Antibiotic/Inhibitor) MICs: antibiotic: lowest FICI
Protocol: (§1) MIC tests and checkerboard assays were performed in U-bottom, 96-well microtiter plates using a modified broth microdilution protocol following CLSI guidelines. Cation-adjusted Mueller-Hinton Broth (CAMHB) was prepared fresh on the day of testing.[74] […] Bacterial colonies were selected from an overnight culture on MHA plates (supplemented with 0.2%w/vL-arabinose for E. coli TOP10 containing pBAD-TOPO-Tet(X4)) and were suspended in 0.9% saline solution to achieve a 0.5 McFarland standard. A 100 μL aliquot of this suspension was then diluted into 9.9 mL of CAMHB to yield approximately 1.5 × 10^6 cfu mL^−1. 50 μL of the suspension was then added to each well of a microtiter plates. Plates were incubated at 37 °C for 18 h. At least 2 replicates were conducted for each combination. E. coli TOP10 + pBAD-TOPO-Tet(X4) cells were grown in the absence and presence of 0.2%w/vL-arabinose. Analysis of the MIC and checkerboard results were carried out by visual inspection of growth, with and without resazurin dye, an oxidation–reduction indicator.[75] As a measure of synergy, fractional inhibitory concentration index (FICI) was calculated as FICA + FICB, where FICA and FICB are the MICcombination/MICalone for each agent, respectively.[76] Results were interpreted as follows: synergistic (<0.5), indifferent (1.0–4.0) or antagonistic (>4.0).[64] In cases where the MIC exceeded or was below the measured range, the borderline value was taken to calculate the FIC index.

[3] = tested on: Acinetobacter baumannii NT5-1 – tet(X5); test: microbe, parasite or virus in culture; type: cell-based; conditions: for MIC: Acinetobacter baumannii, read-out: Tet(X) Inhibitor MIC; for Combination (Antibiotic/Inhibitor) MICs: inhibitor / Combination (Antibiotic/Inhibitor) MICs: antibiotic: lowest FICI
Protocol: as §1

[4] = tested on: Proteus penneri NT6-2 – tet(X6); test: microbe, parasite or virus in culture; type: cell-based; conditions: for MIC: Proteus penneri, read-out: Tet(X) Inhibitor MIC; for Combination (Antibiotic/Inhibitor) MICs: inhibitor / Combination (Antibiotic/Inhibitor) MICs: antibiotic: lowest FICI
Protocol: as §1

[5] = read-out: Tet(X) Inhibitor MIC, alone, without L-arabinose induction
[6] = induced with 0.2%w/v L-arabinose
[7] = with tigecycline, 0.2%w/v L-arabinose
[8] = with tigecycline, without L-arabinose
[9] = inhibitor in combination with tigecycline
[10] = tigecycline in combination with the inhibitor
[11] = read-out: Tet(X) inhibitor MIC, alone, induced with 0.2%w/v L-arabinose
[12] = with doxycycline, 0.2%w/v L-arabinose
[13] = with doxycycline, no L-arabinose
[14] = with tetracycline, 0.2%w/v L-arabinose
[15] = with tetracycline, no L-arabinose

Structure (SMILES): CN1CCN(CCCN2c3ccccc3Sc3ccc(C(F)(F)F)cc32)CC1 [Trifluoperazine]
- IC50 (Tet(X4)): 55.6 ± 14.2 µM
- MIC [1, 5]: 64 µg/mL
- Tet(X) inhibitor MIC [1, 6]: 64 µg/mL
- Tet(X) inhibitor MIC ([1]; induced with 0.2%w/v L-arabinose, listed as trifluoperazine): 16 to 64 µg/mL
- reduction of the tigecycline MIC ([1]; 0.2%w/v L-arabinose): 2–4 fold
- Combination (antibiotic/inhibitor) MIC: inhibitor ([1]; 0.2%w/v L-arabinose): 8 µg/mL
- Combination (antibiotic/inhibitor) MIC: inhibitor ([1]; without L-arabinose): 32 µg/mL
- Combination (antibiotic/inhibitor) MIC: antibiotic ([1]; 0.2%w/v L-arabinose): 2 µg/mL
- Combination (antibiotic/inhibitor) MIC: antibiotic ([1]; without L-arabinose): 0.13 µg/mL
- FICI [1, 7]: 0.6
- Outcome [1, 7]: Indifferent (indifferent (0.5–4.0))
- FICI ([1]; with tigecycline, 0.2%w/v L-arabinose, listed as trifluoperazine): 0.5-1
- FICI [1, 8]: 1
- Outcome [1, 8]: indifferent (indifferent (0.5-4.0))
- MIC ([2]; E. coli T-24a): 256 µg/mL
- Combination (Antibiotic/Inhibitor) MICs: inhibitor [2, 9]: 32 µg/mL
- Combination (Antibiotic/Inhibitor) MICs: antibiotic [2, 10]: 8 µg/mL
- FICI ([2]; with tigecycline): 0.6
- Outcome ([2]; with tigecycline): indifferent (indifferent (0.5-4.0))
- MIC [3]: 128 µg/mL
- Combination (Antibiotic/Inhibitor) MICs: inhibitor [3, 9]: 64 µg/mL
- Combination (Antibiotic/Inhibitor) MICs: antibiotic [3, 10]: 1 µg/mL
- FICI ([3]; with tigecycline): 0.6
- Outcome ([3]; with tigecycline): indifferent (indifferent (0.5-4.0))
- MIC [4]: > 128 µg/mL
- Combination (Antibiotic/Inhibitor) MICs: inhibitor [4, 9]: 128 µg/mL
- Combination (Antibiotic/Inhibitor) MICs: antibiotic [4, 10]: 4 µg/mL
- FICI ([4]; with tigecycline): 1.5
- Outcome ([4]; with tigecycline): indifferent (indifferent (0.5-4.0))

Structure (SMILES): O=C(c1ccc(OCCN2CCCCC2)cc1)c1c(-c2ccc(O)cc2)sc2cc(O)ccc12 [Raloxifene]
- IC50 (Tet(X4)): 19.8 ± 5.4 µM
- MIC [1, 5]: > 128 µg/mL
- MIC [1, 11]: > 128 µg/mL
- Combination (antibiotic/inhibitor) MIC: inhibitor ([1]; 0.2%w/v L-arabinose): 128 µg/mL
- Combination (antibiotic/inhibitor) MIC: inhibitor ([1]; without L-arabinose): > 128 µg/mL
- Combination (antibiotic/inhibitor) MIC: antibiotic ([1]; 0.2%w/v L-arabinose): 0.5 µg/mL
- Combination (antibiotic/inhibitor) MIC: antibiotic ([1]; without L-arabinose): 0.25 µg/mL
- FICI [1, 7]: 1.1
- Outcome [1, 7]: Indifferent (indifferent (0.5–4.0))
- FICI [1, 8]: 2
- Outcome [1, 8]: indifferent (indifferent (0.5-4.0))
- MIC ([2]; E. coli T-24a): 256 µg/mL
- Combination (Antibiotic/Inhibitor) MICs: inhibitor [2, 9]: 128 µg/mL
- Combination (Antibiotic/Inhibitor) MICs: antibiotic [2, 10]: 8 µg/mL
- FICI ([2]; with tigecycline): 1
- Outcome ([2]; with tigecycline): indifferent (indifferent (0.5-4.0))
- MIC [3]: > 128 µg/mL
- Combination (Antibiotic/Inhibitor) MICs: inhibitor [3, 9]: 128 µg/mL
- Combination (Antibiotic/Inhibitor) MICs: antibiotic [3, 10]: 2 µg/mL
- FICI ([3]; with tigecycline): 1.3
- Outcome ([3]; with tigecycline): indifferent (indifferent (0.5-4.0))
- MIC [4]: > 128 µg/mL
- Combination (Antibiotic/Inhibitor) MICs: inhibitor [4, 9]: > 128 µg/mL
- Combination (Antibiotic/Inhibitor) MICs: antibiotic [4, 10]: 8 µg/mL
- FICI ([4]; with tigecycline): 2
- Outcome ([4]; with tigecycline): indifferent (indifferent (0.5-4.0))

Structure (SMILES): [H]/N=C(/NCCCCC)N/N=C/c1c[nH]c2ccc(OC)cc12 [Tegaserod]
- IC50 (Tet(X4)): 43.2 ± 2.2 µM
- MIC ([1]; read-out: Tet(X) Inhibitor MIC, alone, 0.2%w/v L-arabinose (Table S7)): 16 µg/mL
- MIC [1, 5]: 16 µg/mL
- MIC [1, 11]: 16 to 64 µg/mL
- Tet(X) inhibitor MIC [1, 6]: 16 µg/mL
- reduction of the tigecycline MIC ([1]; 0.2%w/v L-arabinose): 2–4 fold
- Combination (Antibiotic/Inhibitor) MICs: antibiotic ([1]; doxycycline with tegaserod, 0.2%w/v L-arabinose): 16 µg/mL
- Combination (Antibiotic/Inhibitor) MICs: antibiotic ([1]; doxycycline with tegaserod, no L-arabinose): 8 µg/mL
- Combination (antibiotic/inhibitor) MIC: inhibitor ([1]; 0.2%w/v L-arabinose): 8 µg/mL
- Combination (antibiotic/inhibitor) MIC: inhibitor ([1]; without L-arabinose): 16 µg/mL
- Combination (Antibiotic/Inhibitor) MICs: inhibitor ([1]; tegaserod with doxycycline, 0.2%w/v L-arabinose): 4 µg/mL
- Combination (Antibiotic/Inhibitor) MICs: inhibitor ([1]; tegaserod with doxycycline, no L-arabinose): 0.5 µg/mL
- Combination (Antibiotic/Inhibitor) MICs: inhibitor ([1]; tegaserod with tetracycline, 0.2%w/v L-arabinose): 8 µg/mL
- Combination (Antibiotic/Inhibitor) MICs: inhibitor ([1]; tegaserod with tetracycline, no L-arabinose): 4 µg/mL
- Combination (Antibiotic/Inhibitor) MICs: antibiotic ([1]; tetracycline with tegaserod, 0.2%w/v L-arabinose): 64 µg/mL
- Combination (Antibiotic/Inhibitor) MICs: antibiotic ([1]; tetracycline with tegaserod, no L-arabinose): 16 µg/mL
- Combination (antibiotic/inhibitor) MIC: antibiotic ([1]; 0.2%w/v L-arabinose): 1 µg/mL
- Combination (antibiotic/inhibitor) MIC: antibiotic ([1]; without L-arabinose): 0.25 µg/mL
- FICI [1, 12]: 0.8
- Outcome [1, 12]: indifferent (indifferent (0.5-4.0))
- FICI [1, 13]: 1.0
- Outcome [1, 13]: indifferent (indifferent (0.5-4.0))
- FICI [1, 14]: 1.0
- Outcome [1, 14]: indifferent (indifferent (0.5-4.0))
- FICI [1, 15]: 2.0
- Outcome [1, 15]: indifferent (indifferent (0.5-4.0))
- FICI [1, 7]: 0.8
- Outcome [1, 7]: Indifferent (indifferent (0.5–4.0))
- FICI ([1]; with tigecycline, 0.2%w/v L-arabinose, listed as tegaserod): 0.5-1
- FICI [1, 8]: 2
- Outcome [1, 8]: indifferent (indifferent (0.5-4.0))
- MIC ([2]; E. coli T-24a): 16 µg/mL
- Tet(X) inhibitor MIC ([2]; alone, E. coli T-24a): 32 µg/mL
- Combination (Antibiotic/Inhibitor) MICs: antibiotic ([2]; doxycycline with tegaserod): 4 µg/mL
- Combination (Antibiotic/Inhibitor) MICs: inhibitor [2, 9]: 8 µg/mL
- Combination (Antibiotic/Inhibitor) MICs: inhibitor ([2]; tegaserod with doxycycline): 16 µg/mL
- Combination (Antibiotic/Inhibitor) MICs: inhibitor ([2]; tegaserod with tetracycline): 16 µg/mL
- Combination (Antibiotic/Inhibitor) MICs: antibiotic ([2]; tetracycline with tegaserod): 32 µg/mL
- Combination (Antibiotic/Inhibitor) MICs: antibiotic [2, 10]: 4 µg/mL
- FICI ([2]; with doxycycline): 0.6
- Outcome ([2]; with doxycycline): indifferent (indifferent (0.5-4.0))
- FICI ([2]; with tetracycline): 0.8
- Outcome ([2]; with tetracycline): indifferent (indifferent (0.5-4.0))
- FICI ([2]; with tigecycline): 0.8
- Outcome ([2]; with tigecycline): indifferent (indifferent (0.5-4.0))
- MIC [3]: 32 µg/mL
- Combination (Antibiotic/Inhibitor) MICs: antibiotic ([3]; doxycycline with tegaserod): 16 µg/mL
- Combination (Antibiotic/Inhibitor) MICs: inhibitor [3, 9]: 16 µg/mL
- Combination (Antibiotic/Inhibitor) MICs: inhibitor ([3]; tegaserod with doxycycline): 4 µg/mL
- Combination (Antibiotic/Inhibitor) MICs: inhibitor ([3]; tegaserod with tetracycline): 8 µg/mL
- Combination (Antibiotic/Inhibitor) MICs: antibiotic ([3]; tetracycline with tegaserod): 128 µg/mL
- Combination (Antibiotic/Inhibitor) MICs: antibiotic [3, 10]: 1 µg/mL
- FICI ([3]; with doxycycline): 0.6
- Outcome ([3]; with doxycycline): indifferent (indifferent (0.5-4.0))
- FICI ([3]; with tetracycline): 1.3
- Outcome ([3]; with tetracycline): indifferent (indifferent (0.5-4.0))
- FICI ([3]; with tigecycline): 0.6
- Outcome ([3]; with tigecycline): indifferent (indifferent (0.5-4.0))
- MIC [4]: 64 µg/mL
- Combination (Antibiotic/Inhibitor) MICs: antibiotic ([4]; doxycycline with tegaserod): 8 µg/mL
- Combination (Antibiotic/Inhibitor) MICs: inhibitor [4, 9]: 16 µg/mL
- Combination (Antibiotic/Inhibitor) MICs: inhibitor ([4]; tegaserod with doxycycline): 32 µg/mL
- Combination (Antibiotic/Inhibitor) MICs: inhibitor ([4]; tegaserod with tetracycline): 32 µg/mL
- Combination (Antibiotic/Inhibitor) MICs: antibiotic ([4]; tetracycline with tegaserod): 16 µg/mL
- Combination (Antibiotic/Inhibitor) MICs: antibiotic [4, 10]: 4 µg/mL
- FICI ([4]; with doxycycline): 1.0
- Outcome ([4]; with doxycycline): indifferent (indifferent (0.5-4.0))
- FICI ([4]; with tetracycline): 1.0
- Outcome ([4]; with tetracycline): indifferent (indifferent (0.5-4.0))
- FICI ([4]; with tigecycline): 0.8
- Outcome ([4]; with tigecycline): indifferent (indifferent (0.5-4.0))

Source: paper PMC12056667 (Chemical Science, 2025)
